pIC50: −log10 of the molar value. Where two headings read alike, the source gives them in different places.
What was measured:
Notch 1 = assay: Notch-CBF1 Transactivation Assay (Notch 1); format: cell-based
Source text: (§1) Table 12 denotes respective DNA quantity for the transfections.
(§2) Duplicates were used for each sample.

Notch 3 = assay: Notch-CBF1 Transactivation Assay (Notch 3); format: cell-based
Source text: as §1, §2

[1] = High Throughput (HT) Metabolic Stability Panel, human liver microsomes
Method: (§3) Each compound was tested in duplicate.

[2] = High Throughput (HT) Metabolic Stability Panel, mouse liver microsomes
Method: as §3

[3] = read-out: Notch 1 (IC50), HeLa cells, luciferase, rounded to 2 digits
[4] = read-out: Notch 3 (IC50), HeLa cells, luciferase, rounded to 2 digits
[5] = 0.5 μM compound, human liver microsomes, 10 min incubation
[6] = 0.5 μM compound, mouse liver microsomes, 10 min incubation
[7] = HeLa cells, luciferase, rounded to 2 digits, read-out: Notch 1 (IC50)
[8] = HeLa cells, luciferase, rounded to 2 digits, read-out: Notch 3 (IC50)

| SMILES | pIC50 (Notch 1; [3]) | pIC50 (Notch 3; [4]) | 0.5 μM HLM (% Remaining) [1, 5] | 0.5 μM MsLM (% Remaining) [2, 6] | pIC50 (Notch 1; [7]) | pIC50 (Notch 3; [8]) | 0.5 μM HLM (% Remaining) ([1]; human, microsomes, 10 min, 0.5 µM, pH 7.4) | 0.5 μM MsLM (% Remaining) ([2]; mouse, microsomes, 10 min, 0.5 µM, pH 7.4) |
| --- | --- | --- | --- | --- | --- | --- | --- | --- |
| NC(=O)[C@@H](CCCC(F)(F)F)[C@@H](CCC(F)(F)F)C(=O)N[C@H]1N=C(c2ccccc2)c2ccccc2NC1=O [Example 19, (2R,3S)—N-((3S)-2-Oxo-5-phenyl-2,3-dihydro-1H-1,4-benzodiazepin-3-yl)-3-(4,4,4-trifluorobutyl)-2-(3,3,3-trifluoropropyl)succinamide] | 8.89 | 8.42 | 96% | 97% | – | – | – | – |
| NC(=O)[C@@H](CCC(F)(F)F)[C@@H](CCC(F)(F)F)C(=O)N[C@H]1N=C(c2ccccc2)c2cccc(Cl)c2NC1=O [Example 18, (2R,3S)—N-((3S)-9-chloro-2-oxo-5-phenyl-2,3-dihydro-1H-1,4-benzodiazepin-3-yl)-2,3-bis(3,3,3-trifluoropropyl)succinamide] | 9.28 | 8.64 | 100% | 100% | – | – | – | – |
| CN1C(=O)[C@@H](NC(=O)[C@H](CC(F)(F)F)[C@H](CCC(F)(F)F)C(N)=O)N=C(c2ccccc2)c2ccccc21 [Example 3, (2R,3S)—N-((3S)-1-Methyl-2-oxo-5-phenyl-2,3-dihydro-1H-1,4-benzodiazepin-3-yl)-2-(2,2,2-trifluoroethyl)-3-(3,3,3-trifluoropropyl)succinamide] | 8.51 | 8.33 | 84% | 91% | – | – | – | – |
| NC(=O)[C@@H](CCC(F)(F)F)[C@@H](CCC(F)(F)F)C(=O)N[C@H]1N=C(c2ccccc2)c2cccc(F)c2NC1=O [Example 17, (2R,3S)—N-((3S)-9-fluoro-2-oxo-5-phenyl-2,3-dihydro-1H-1,4-benzodiazepin-3-yl)-2,3-bis(3,3,3-trifluoropropyl)succinamide] | 8.44 | 8.15 | 100% | 96% | – | – | – | – |
| C=CC[C@H](C(N)=O)[C@@H](CC(C)C)C(=O)N[C@H]1N=C(c2ccccc2)c2cc(Cl)ccc2N(C)C1=O [Comparative Compound 23, reference compound] | – | – | 19% | 9.0% | – | – | – | – |
| CN1C(=O)[C@@H](NC(=O)[C@H](CCC(F)(F)F)[C@H](CCC(F)(F)F)C(N)=O)N=C(c2ccccc2)c2cc(Cl)ccc21 [Example 6, (2R,3S)—N-((3S)-7-chloro-1-methyl-2-oxo-5-phenyl-2,3-dihydro-1H-1,4-benzodiazepin-3-yl)-2,3-bis(3,3,3-trifluoropropyl)succinamide] | 8.19 | 8.00 | 100% | 100% | – | – | – | – |
| COc1ccc2c(c1)C(c1ccccc1)=N[C@H](NC(=O)[C@H](CCC(F)(F)F)[C@H](CCC(F)(F)F)C(N)=O)C(=O)N2C [Example 9, (2R,3S)—N-((3S)-7-methoxy-1-methyl-2-oxo-5-phenyl-2,3-dihydro-1H-1,4-benzodiazepin-3-yl)-2,3-bis(3,3,3-trifluoropropyl)succinamide] | 8.36 | 8.09 | 100% | 87% | – | – | – | – |
| NC(=O)[C@@H](CCC(F)(F)F)[C@@H](CCC(F)(F)F)C(=O)N[C@H]1N=C(c2ccccc2)c2ccc(Cl)c(Cl)c2NC1=O [Example 16, (2R,3S)—N-((3S)-8,9-dichloro-2-oxo-5-phenyl-2,3-dihydro-1H-1,4-benzodiazepin-3-yl)-2,3-bis(3,3,3-trifluoropropyl)succinamide] | 8.38 | 8.19 | 80% | 91% | – | – | – | – |
| [2H]C([2H])([2H])N1C(=O)[C@@H](NC(=O)[C@H](CCC(F)(F)F)[C@H](CCC(F)(F)F)C(N)=O)N=C(c2ccccc2)c2ccccc21 [Example 5, (2R,3S)—N-((3S)-1-(^2H3)Methyl-2-oxo-5-phenyl-2,3-dihydro-1H-1,4-benzodiazepin-3-yl)-2,3-bis(3,3,3-trifluoropropyl)succinamide] | – | – | – | – | 8.92 | 8.23 | 100% | 98% |
| COCCNc1cccc2c1NC(=O)[C@@H](NC(=O)[C@H](CCC(F)(F)F)[C@H](CCC(F)(F)F)C(N)=O)N=C2c1ccccc1 [Example 21, (2R,3S)—N-((3S)-9-((2-Methoxyethyl)amino)-2-oxo-5-phenyl-2,3-dihydro-1H-1,4-benzodiazepin-3-yl)-2,3-bis(3,3,3-trifluoropropyl)succinamide] | 8.82 | 8.38 | 98% | 82% | – | – | – | – |
| C=CC[C@H](C(N)=O)[C@@H](CC(C)C)C(=O)N[C@H]1N=C(c2ccccc2)c2ccccc2N(CCC)C1=O [Comparative Compound 25, reference compound] | – | – | 2.7% | 0.18% | – | – | – | – |
| COc1ccc2c(c1)NC(=O)[C@@H](NC(=O)[C@H](CCC(F)(F)F)[C@H](CCC(F)(F)F)C(N)=O)N=C2c1ccccc1 [Example 13, (2R,3S)—N-((3S)-8-methoxy-2-oxo-5-phenyl-2,3-dihydro-1H-1,4-benzodiazepin-3-yl)-2,3-bis(3,3,3-trifluoropropyl)succinamide] | – | – | 100% | 97% | 8.68 | 8.42 | – | – |
| CN1C(=O)[C@@H](NC(=O)[C@H](CCC(F)(F)F)[C@H](CC(F)(F)F)C(N)=O)N=C(c2ccccc2)c2ccccc21 [Example 4, (2R,3S)—N-((3S)-1-Methyl-2-oxo-5-phenyl-2,3-dihydro-1H-1,4-benzodiazepin-3-yl)-3-(2,2,2-trifluoroethyl)-2-(3,3,3-trifluoropropyl)succinamide] | 8.82 | 8.60 | 100% | 91% | – | – | – | – |
| COc1ccc2c(c1)N(C)C(=O)[C@@H](NC(=O)[C@H](CCC(F)(F)F)[C@H](CCC(F)(F)F)C(N)=O)N=C2c1ccccc1 [Example 7, (2R,3S)—N-((3S)-8-methoxy-1-methyl-2-oxo-5-phenyl-2,3-dihydro-1H-1,4-benzodiazepin-3-yl)-2,3-bis(3,3,3-trifluoropropyl)succinamide] | – | – | 93% | 72% | 8.82 | 8.55 | – | – |
| COc1cccc2c1NC(=O)[C@@H](NC(=O)[C@H](CCC(F)(F)F)[C@H](CCC(F)(F)F)C(N)=O)N=C2c1ccccc1 [Example 12, (2R,3S)—N-((3S)-9-methoxy-2-oxo-5-phenyl-2,3-dihydro-1H-1,4-benzodiazepin-3-yl)-2,3-bis(3,3,3-trifluoropropyl)succinamide] | 8.60 | 8.38 | 100% | 100% | – | – | – | – |
| CC(C)C[C@@H](C(=O)N[C@H]1N=C(c2ccccc2)c2ccccc2N(C)C1=O)[C@H](CCC(F)(F)F)C(N)=O [Comparative Compound 22, reference compound] | 7.19 | 7.32 | 39% | 15% | – | – | – | – |
| CN1C(=O)[C@@H](NC(=O)[C@H](CCC(F)(F)F)[C@H](CCC(F)(F)F)C(N)=O)N=C(c2ccccc2)c2ccc(Cl)cc21 [Example 11, (2R,3S)—N-((3S)-8-chloro-1-methyl-2-oxo-5-phenyl-2,3-dihydro-1H-1,4-benzodiazepin-3-yl)-2,3-bis(3,3,3-trifluoropropyl)succinamide] | 8.89 | 8.70 | 97% | 98% | – | – | – | – |
| COc1c(C#N)ccc2c1NC(=O)[C@@H](NC(=O)[C@H](CCC(F)(F)F)[C@H](CCC(F)(F)F)C(N)=O)N=C2c1ccccc1 [Example 15, (2R,3S)—N-((3S)-8-cyano-9-methoxy-2-oxo-5-phenyl-2,3-dihydro-1H-1,4-benzodiazepin-3-yl)-2,3-bis(3,3,3-trifluoropropyl)succinamide] | 7.92 | 7.80 | 100% | 93% | – | – | – | – |
| COc1ccc2c(c1)NC(=O)[C@@H](NC(=O)[C@H](CCC(F)(F)F)[C@H](CCCC(F)(F)F)C(N)=O)N=C2c1ccccc1 [Example 20, (2R,3S)—N1-((3S)-8-Methoxy-2-oxo-5-phenyl-2,3-dihydro-1H-1,4-benzodiazepin-3-yl)-3-(4,4,4-trifluorobutyl)-2-(3,3,3-trifluoropropyl)succinamide] | 8.54 | 8.38 | 100% | 100% | – | – | – | – |
| COc1ccc2c(c1)C(c1ccccc1)=N[C@H](NC(=O)[C@H](CCC(F)(F)F)[C@H](CCC(F)(F)F)C(N)=O)C(=O)N2 [Example 14, (2R,3S)—N-((3S)-7-methoxy-2-oxo-5-phenyl-2,3-dihydro-1H-1,4-benzodiazepin-3-yl)-2,3-bis(3,3,3-trifluoropropyl)succinamide] | – | – | 100% | 95% | 8.28 | 7.89 | – | – |
| CN1C(=O)[C@@H](NC(=O)[C@H](CCC(F)(F)F)[C@H](CCC(F)(F)F)C(N)=O)N=C(c2ccccc2)c2cc(F)ccc21 [Example 10, (2R,3S)—N-((3S)-7-fluoro-1-methyl-2-oxo-5-phenyl-2,3-dihydro-1H-1,4-benzodiazepin-3-yl)-2,3-bis(3,3,3-trifluoropropyl)succinamide] | 8.54 | 8.34 | 96% | 98% | – | – | – | – |
| CCCC[C@H](C(N)=O)[C@@H](CC(C)C)C(=O)N[C@H]1N=C(c2ccc(Cl)cc2)c2ccccc2N(C)C1=O [Comparative Compound 24, reference compound] | – | – | 21% | 13% | – | – | – | – |
